Laboratory results published in patent publication US8734580B2, “Carbonyl propyl sulfuryl anthrapyridone sulfonic acid compounds and their preparation methods and applications” (Dalian University of Technology, priority 2011, dated 2014).

How the values were obtained:
Type in all cases: physicochemical
[1] = Evaluation of long-term stability of the dye in aqueous solvent system; set-up: key: ∘: No precipitation; Δ: Slight precipitation; x: Notable precipitation; details: 20 parts dye, 70 parts water, 10 parts ethylene glycol; 50° C. for 7d, then 0° C. for 7d; filtered, precipitation graded
Procedure: (E) Evaluation of Long-Term Stability of the Dye in Aqueous Solvent System
Heat and dissolve the system of 20 parts of dyes, 70 parts of water and 10 parts of ethylene glycol; after the solution cools down, store it airtight at a constant temperature of 50° C. for 7d; cool it down and store it at 0° C. for 7d; filter the solution and evaluate it in 3 grades based on the following benchmark: […]

[2] = Ozone gas resistance of the printed images; details: ink with 6 parts dye, printed on glossy photo paper; 40 ppm ozone, 60% RH, 24° C.; grade by color difference ΔE
Procedure: Use an ink-jet printer (Epson 270 manufactured by Epson Company), glossy photo paper (Epson) and the above described ink compositions for ink-jet printing. (2) Ozone Gas Resistance of the Printed Images Place the printed images in the Ozone Weathering Test Chamber (manufactured by China Surui Company) at 60% RH, 24° C. and 40 ppm ozone. Calculated the color difference (ΔE) before and after the test by the same method as described in (1) above and evaluate it in 3 grades based on the following benchmark: ΔE<10 ∘ ΔE<20 Δ ΔE>20 x

[3] = Moisture resistance of the printed images; set-up: key: ∘: No bleeding; Δ: Slight bleeding; x: Notable bleeding; details: printed images at 50° C. and 90% RH for 168 h; bleeding judged by bare eyes
Procedure: (§1) The mixture product M1, M2 or M3 and the pure compound obtained by separation according to the embodiments 1-3 are used as the magenta colorant, and the ink composition is prepared according to the formula shown in following table 1, and the magenta aqueous ink composition is obtained by filtering with a 0.45 μm membrane filter, wherein triethanolamine is added to adjust the pH value of the ink composition to 8-10, and deionized water is added to make the total amount reach 100 parts-by-weight (PBW).
(§2) Use an ink-jet printer (Epson 270 manufactured by Epson Company), glossy photo paper (Epson) and the above described ink compositions for ink-jet printing.
(3) Moisture Resistance of the Printed Images
Place the printed images in the Constant Temperature and Humidity Chamber (manufactured by China Surui Company) at 50° C. and 90% RH for 168 h; judge the bleeding of the ink by bare eyes before and after the test and evaluate it in 3 grades based on the following benchmark: […]

[4] = Evaluation of the dye solubility in water; details: grade by g/100 g water
Description: (D) Evaluation of the Dye Solubility in Water (g/100 g Water)
Solubility of the dye in water >30 ∘
Solubility of the dye in water >15-20 Δ
Solubility of the dye in water <15 x

[5] = Xenon lamp light-resistance test of the printed images; details: ink with 6 parts dye, ink-jet printed on glossy photo paper; xenon lamp 0.36 W/m^2, 50 h, 60% RH, 24° C.; grade by color difference ΔE
Procedure: as §1, §2
(1) Xenon Lamp Light-Resistance Test of the Printed Images
Irradiate the printed glossy photo paper manufactured by Canon and Epson with Xenon-lamp Weathering Test Chamber ZG-P (manufactured by China Surui Company) at 60% RH and 24° C. with illuminance of 0.36 W/m^2 for 50 h to test the color difference (ΔE) before and after the test. The color difference (ΔE) is calculated from the differences of values of L*, a*, b* before and after the test in the above described color measurement system (Unterlab) by the followings formula: ΔE=((difference of L*)^2+(difference of a*)^2+(difference of b*)^2)^1/2.
Three grades will be divided for the evaluation based on the following benchmark: […]

SMILES | Long-term stability of the dye in aqueous solvent system [1] | Ozone resistance of ink printed images [2] | Water resistance of ink printed images [3] | Solubility of dye in water [4] | Ultraviolet resistance of ink printed images [5]
O=S(=O)([O-])c1cc(Nc2nc(Nc3ccc(/C=C/c4ccc(Nc5nc(Nc6cc(S(=O)(=O)[O-])cc7cc(S(=O)(=O)[O-])c(N=Nc8ccccc8)c(O)c67)nc(N6CCOCC6)n5)cc4S(=O)(=O)[O-])c(S(=O)(=O)[O-])c3)nc(N3CCOCC3)n2)c2c(O)c(N=Nc3ccccc3)c(S(=O)(=O)[O-])cc2c1.[Na+].[Na+].[Na+].[Na+].[Na+].[Na+] [C.I. direct red 227, reference compound] | Δ | x (ΔE>20) | Δ | x (Solubility of the dye in water <15) | x (ΔE>20)
O=C(c1cccc(S(=O)(=O)O)c1)c1c2c3c(c(Nc4c(S(=O)(=O)O)cc(S(=O)(=O)CCC5C(=O)c6ccccc6C5=O)cc4S(=O)(=O)O)cc(S(=O)(=O)O)c3[nH]c1=O)C(=O)c1ccccc1-2 [Dp8] | ∘ | ∘ (ΔE<10) | ∘ | ∘ (Solubility of the dye in water >30) | ∘ (ΔE<10)
O=C(c1cccc(S(=O)(=O)O)c1)c1c2c3c(c(Nc4c(S(=O)(=O)O)cc(S(=O)(=O)CCC5C(=O)c6ccc(S(=O)(=O)O)cc6C5=O)cc4S(=O)(=O)O)cc(S(=O)(=O)O)c3[nH]c1=O)C(=O)c1ccccc1-2 (stereo not shown) [Dp10] | ∘ | ∘ (ΔE<10) | ∘ | ∘ (Solubility of the dye in water >30) | ∘ (ΔE<10)
O=C(O)CCCS(=O)(=O)c1cc(S(=O)(=O)O)c(Nc2cc(S(=O)(=O)O)c3[nH]c(=O)c(C(=O)c4cccc(S(=O)(=O)O)c4)c4c3c2C(=O)c2ccccc2-4)c(S(=O)(=O)O)c1 [Dp2] | ∘ | ∘ (ΔE<10) | ∘ | ∘ (Solubility of the dye in water >30) | ∘ (ΔE<10)
O=C(CCCS(=O)(=O)c1cc(S(=O)(=O)O)c(Nc2cc(S(=O)(=O)O)c3[nH]c(=O)c(C(=O)c4cccc(S(=O)(=O)O)c4)c4c3c2C(=O)c2ccccc2-4)c(S(=O)(=O)O)c1)c1cccc(S(=O)(=O)O)c1 [Dp4] | ∘ | ∘ (ΔE<10) | ∘ | ∘ (Solubility of the dye in water >30) | ∘ (ΔE<10)
